For assay [1], the target named is T1, Human HDAC1 (Homo sapiens, UniProt Q13547).
T1 construct: full length with C-terminal His-tag and C-terminal FLAG-tag; His (C); FLAG (C); host or cells: baculovirus expression system
The experiment in a line: HDAC1 biochemical assay, AMC-labeled peptide substrate. The conditions noted are these: read-out: HDAC Isoform IC50 (nM) 1. The method, boiled down:
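Two-step fluorogenic read: HDAC1 deacetylates 50 μM acetyl-lysine AMC peptide RHKK(Ac)AMC for 1 h at 30° C (pH 8.0, 1% DMSO, with compound), then developer digests the product for fluorescence at Ex/Em 360/460. Enzyme is full-length human, His/FLAG-tagged, insect-cell expressed, at 0.3 ng/ul.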

In assay [2] the target is T2, Human HDAC11 (Homo sapiens, UniProt Q96DB2).
T2 construct: Human HDAC11 (full length); His (N); host or cells: baculovirus expression system
T2 sequence (Q96DB2 1-347): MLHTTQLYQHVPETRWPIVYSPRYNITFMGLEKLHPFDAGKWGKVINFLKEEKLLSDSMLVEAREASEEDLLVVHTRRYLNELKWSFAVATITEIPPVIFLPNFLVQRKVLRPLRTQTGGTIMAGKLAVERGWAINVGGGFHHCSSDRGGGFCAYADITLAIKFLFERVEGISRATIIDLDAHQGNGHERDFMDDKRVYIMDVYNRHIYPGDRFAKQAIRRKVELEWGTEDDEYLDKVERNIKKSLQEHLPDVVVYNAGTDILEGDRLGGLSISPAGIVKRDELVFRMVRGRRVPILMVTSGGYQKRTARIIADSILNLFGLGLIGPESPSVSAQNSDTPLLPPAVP
Put plainly: HDAC11 biochemical assay, class IIa-specific substrate. The conditions noted are these: read-out: HDAC Isoform IC50 (nM) 11. The method, boiled down: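 Full-length N-His human HDAC11 from baculovirus, 5 ng/μl, incubated with 50 μM Boc-Lys(trifluoroacetyl)-AMC for 30 min at 30 °C. Buffer: 50 mM Tris-HCl pH 8.0, 137 mM NaCl, 2.7 mM KCl, 1 mM MgCl2, 1 mg/mL BSA, 1% DMSO. Developer releases AMC; fluorescence read at 360/460 nm.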

The target in assay [3] is T3, Human HDAC5 (Homo sapiens, UniProt Q9UQL6).
T3 construct: full length with C-terminal His tag, MW=51.1 kDa; His (C); host or cells: baculovirus expression system
The experiment in a line: HDAC5 biochemical assay, class IIa-specific substrate. The settings on record: read-out: HDAC Isoform IC50 (nM) 5. In a few lines: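 Two-step fluorogenic read-out: deacetylated trifluoroacetyl-lysine AMC substrate (50 μM) digested by developer, measured at Ex/Em 360/460. Deacetylation step: 0.05 ng/ul His-tagged full-length baculoviral enzyme with compound, 30 min, room temperature, pH 8.0 Tris with 1 mg/mL BSA and 1% DMSO.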

Assay [4] deals with T4, Human HDAC2 (Homo sapiens, UniProt Q92769).
T4 construct: full length with C-terminal GST-tag; GST (C); host or cells: baculovirus expression system
The experiment in a line: HDAC2 biochemical assay, AMC-labeled peptide substrate. The settings on record: read-out: HDAC Isoform IC50 (nM) 2. In a few lines:
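Full-length human HDAC2 with C-terminal GST tag, baculovirus-expressed, at 0.07 ng/ul with 50 μM RHKK(Ac)AMC substrate in Tris-HCl pH8.0 buffer with BSA, 1% DMSO final. Incubated 1 hour at 30° C with compounds, then developer added; fluorescence read at 360/460 Ex/Em.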

In assay [5] the target is T5, Human HDAC4 (Homo sapiens, UniProt P56524).
T5 construct: amino acids 627-1085 with N-terminal GST tag; GST (N); host or cells: baculovirus expression system
Put plainly: HDAC4 biochemical assay, class IIa-specific substrate. The settings on record: read-out: HDAC Isoform IC50 (nM) 4. The method, boiled down:
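Two-step fluorogenic read-out: deacetylated BOC-Lys(trifluoroacetyl)-AMC (50 μM) was digested by developer and measured at Ex/Em 360/460. Deacetylation by 0.004 ng/ul HDAC4 (aa 627-1085, N-terminal GST) ran 30 min at room temperature, pH 8.0 Tris buffer, 1 mg/mL BSA, 1% DMSO.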

Assay [6] concerns the target T6, Human HDAC10 (Homo sapiens, UniProt Q969S8).
T6 construct: Human HDAC10 (a.a. 1-481); GST (N); His (C); host or cells: baculovirus expression system
T6 sequence (Q969S8 1-481): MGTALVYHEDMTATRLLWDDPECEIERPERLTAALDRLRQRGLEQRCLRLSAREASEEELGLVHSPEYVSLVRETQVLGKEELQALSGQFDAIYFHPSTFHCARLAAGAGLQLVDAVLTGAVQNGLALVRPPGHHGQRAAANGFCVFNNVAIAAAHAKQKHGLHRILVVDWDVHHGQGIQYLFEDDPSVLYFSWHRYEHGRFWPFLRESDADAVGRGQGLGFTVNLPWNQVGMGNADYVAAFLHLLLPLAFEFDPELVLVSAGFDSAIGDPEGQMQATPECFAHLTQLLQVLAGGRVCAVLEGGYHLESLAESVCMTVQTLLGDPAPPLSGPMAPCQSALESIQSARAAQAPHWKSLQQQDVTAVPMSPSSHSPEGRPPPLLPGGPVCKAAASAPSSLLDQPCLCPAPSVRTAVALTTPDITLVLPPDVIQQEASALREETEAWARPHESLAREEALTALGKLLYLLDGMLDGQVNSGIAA
Put plainly: HDAC10 biochemical assay, AMC-labeled peptide substrate. The conditions noted are these: read-out: HDAC Isoform IC50 (nM) 10. In a few lines: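 Two-step fluorogenic read-out (Ex/Em 360/460) after developer digestion of deacetylated RHKK(Ac)AMC (50 μM). Deacetylation ran 2 h at 30 °C with 12 ng/ul HDAC10 (aa 1-481, GST/His tags, baculovirus) in Tris-HCl pH 8.0, BSA, 1% DMSO.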

The source of these data is patent US20210038607A1, “OXADIAZOLYLTHIOPHENE DERIVATIVES USEFUL AS HISTONE DEACETYLASE INHIBITORS” (Karus Therapeutics Limited, priority 2018, published 2021).

Structures are written as SMILES.

T1 sequence (Q13547 whole entry): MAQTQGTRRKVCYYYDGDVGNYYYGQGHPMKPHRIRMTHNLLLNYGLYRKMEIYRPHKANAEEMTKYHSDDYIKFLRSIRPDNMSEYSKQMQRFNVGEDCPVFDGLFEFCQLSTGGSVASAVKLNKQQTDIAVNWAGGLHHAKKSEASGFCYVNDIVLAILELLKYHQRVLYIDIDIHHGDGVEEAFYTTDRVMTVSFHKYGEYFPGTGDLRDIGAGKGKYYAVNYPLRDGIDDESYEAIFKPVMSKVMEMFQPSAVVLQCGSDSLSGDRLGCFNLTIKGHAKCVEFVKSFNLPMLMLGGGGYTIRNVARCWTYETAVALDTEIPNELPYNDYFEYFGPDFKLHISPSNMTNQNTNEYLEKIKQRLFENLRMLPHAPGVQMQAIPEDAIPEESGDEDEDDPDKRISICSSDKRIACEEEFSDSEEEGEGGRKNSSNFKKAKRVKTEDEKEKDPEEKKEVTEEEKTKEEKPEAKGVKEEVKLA
T3 sequence (Q9UQL6 656-1122 limits assumed): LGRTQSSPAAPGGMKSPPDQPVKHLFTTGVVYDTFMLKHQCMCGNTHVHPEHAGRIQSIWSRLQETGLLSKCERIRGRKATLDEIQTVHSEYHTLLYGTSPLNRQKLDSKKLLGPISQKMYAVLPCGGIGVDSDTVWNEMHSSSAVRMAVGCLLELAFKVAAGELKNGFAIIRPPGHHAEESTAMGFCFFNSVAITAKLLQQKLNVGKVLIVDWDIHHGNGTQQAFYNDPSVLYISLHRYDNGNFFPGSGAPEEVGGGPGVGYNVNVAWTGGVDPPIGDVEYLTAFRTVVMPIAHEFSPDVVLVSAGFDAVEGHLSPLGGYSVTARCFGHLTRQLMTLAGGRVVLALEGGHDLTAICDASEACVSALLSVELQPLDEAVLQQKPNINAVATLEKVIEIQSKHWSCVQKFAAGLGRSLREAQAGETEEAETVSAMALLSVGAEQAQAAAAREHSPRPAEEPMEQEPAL
T5 sequence (P56524 627-1084 limits assumed): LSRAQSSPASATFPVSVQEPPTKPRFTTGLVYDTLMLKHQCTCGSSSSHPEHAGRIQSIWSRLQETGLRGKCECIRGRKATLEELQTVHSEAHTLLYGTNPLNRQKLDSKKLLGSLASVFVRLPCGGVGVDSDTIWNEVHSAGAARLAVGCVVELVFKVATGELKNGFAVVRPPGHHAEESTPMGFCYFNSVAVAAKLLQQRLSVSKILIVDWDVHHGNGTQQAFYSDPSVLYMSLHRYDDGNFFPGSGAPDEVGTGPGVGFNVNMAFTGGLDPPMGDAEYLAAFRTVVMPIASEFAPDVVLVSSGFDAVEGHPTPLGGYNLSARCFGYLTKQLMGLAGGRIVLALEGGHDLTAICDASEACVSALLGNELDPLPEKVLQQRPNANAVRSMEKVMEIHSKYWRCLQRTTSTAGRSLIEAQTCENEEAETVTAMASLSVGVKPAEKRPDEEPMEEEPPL
T4 sequence (Q92769 whole entry): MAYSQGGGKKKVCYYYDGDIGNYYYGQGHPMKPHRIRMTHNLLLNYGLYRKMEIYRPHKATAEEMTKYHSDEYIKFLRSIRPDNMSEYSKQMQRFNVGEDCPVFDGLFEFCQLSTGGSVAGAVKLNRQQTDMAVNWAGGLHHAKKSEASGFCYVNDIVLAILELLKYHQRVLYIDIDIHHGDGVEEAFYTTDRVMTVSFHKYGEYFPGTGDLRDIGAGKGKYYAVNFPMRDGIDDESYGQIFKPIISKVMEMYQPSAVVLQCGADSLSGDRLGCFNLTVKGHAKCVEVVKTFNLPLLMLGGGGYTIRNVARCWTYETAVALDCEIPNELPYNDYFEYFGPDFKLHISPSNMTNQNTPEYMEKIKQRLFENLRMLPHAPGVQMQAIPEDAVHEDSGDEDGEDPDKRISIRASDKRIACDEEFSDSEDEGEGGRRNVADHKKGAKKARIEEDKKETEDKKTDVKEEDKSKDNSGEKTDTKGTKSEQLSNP

By IC50 is commonly meant the concentration at which inhibition is half-maximal. As to `O=C(c1cnnc(N(Cc2ccc(-c3noc(C(F)(F)F)n3)s2)c2cnccn2)c1)N1CC(C(F)(F)F)C1` [Example GJ, N-(Pyrazin-2-yl)-N-({5-[5-(trifluoromethyl)-1,2,4-oxadiazol-3-yl]thiophen-2-yl}methyl)-5-[3-(trifluoromethyl)azetidine-1-carbonyl]pyridazin-3-amine], the 50% inhibitory concentration (IC50) in assay [1] was greater than 10000 nM; in assay [2] it was greater than 10000 nM; in assay [3], no more than 10000 nM; in assay [4] it was greater than 10000 nM; in assay [5], no more than 1000 nM; in assay [6] it was greater than 10000 nM.
As for `O=C(c1ccc(N(Cc2ccc(-c3noc(C(F)(F)F)n3)s2)c2cnccn2)nn1)N1CCCCC1` [Example FG, 6-(Piperidine-1-carbonyl)-N-(pyrazin-2-yl)-N-({5-[5-(trifluoromethyl)-1,2,4-oxadiazol-3-yl]thiophen-2-yl}methyl)pyridazin-3-amine], the IC50 in assay [1] is greater than 10000 nM; in assay [2], greater than 10000 nM; in assay [3] it was no more than 500 nM; in assay [4], greater than 10000 nM; in assay [5], no more than 500 nM; in assay [6], greater than 10000 nM.
For the compound `FC(F)c1cnnc(N(Cc2ccc(-c3noc(C(F)(F)F)n3)s2)c2cnccn2)c1` [Example GV, 5-(Difluoromethyl)-N-(pyrazin-2-yl)-N-({5-[5-(trifluoromethyl)-1,2,4-oxadiazol-3-yl]thiophen-2-yl}methyl)pyridazin-3-amine], the IC50 in assay [1] was greater than 10000 nM; in assay [2] it was greater than 10000 nM; in assay [3], no more than 1000 nM; in assay [4] it was greater than 10000 nM; in assay [5], no more than 10000 nM; in assay [6], greater than 10000 nM.
`FC(F)(F)c1nc(-c2ccc(CN(c3cnccn3)c3cc(-c4ccccn4)cnn3)s2)no1` [Example GM, N-(Pyrazin-2-yl)-5-(pyridin-2-yl)-N-({5-[5-(trifluoromethyl)-1,2,4-oxadiazol-3-yl]thiophen-2-yl}methyl)pyridazin-3-amine]: the IC50 was greater than 10000 nM in assay [1]; greater than 10000 nM in assay [2]; no more than 10000 nM in assay [3]; greater than 10000 nM in assay [4]; no more than 10000 nM in assay [5]; greater than 10000 nM in assay [6].
Take `Cc1nccnc1N(Cc1ccc(-c2noc(C(F)(F)F)n2)s1)c1cnccn1` [Example BE, 3-Methyl-N-(pyrazin-2-yl)-N-({5-[5-(trifluoromethyl)-1,2,4-oxadiazol-3-yl]thiophen-2-yl}methyl)pyrazin-2-amine]: the IC50 in assay [1] is greater than 10000 nM; in assay [2], greater than 10000 nM; in assay [3], no more than 500 nM; in assay [4], greater than 10000 nM; in assay [5], no more than 500 nM; in assay [6], greater than 10000 nM.
`CC(C)OC1CN(C(=O)c2cnnc(N(Cc3ccc(-c4noc(C(F)(F)F)n4)s3)c3cnccn3)c2)C1` [Example GC, 5-[3-(Propan-2-yloxy)azetidine-1-carbonyl]-N-(pyrazin-2-yl)-N-({5-[5-(trifluoromethyl)-1,2,4-oxadiazol-3-yl]thiophen-2-yl}methyl)pyridazin-3-amine]: the IC50 in assay [1] is greater than 10000 nM; in assay [2], greater than 10000 nM; in assay [3], no more than 500 nM; in assay [4], greater than 10000 nM; in assay [5], no more than 1000 nM; in assay [6], greater than 10000 nM.
Consider `O=C(c1ccc(N(Cc2ccc(-c3noc(C(F)(F)F)n3)s2)c2cnccn2)nn1)N1CCCC1` [Example FI, N-(Pyrazin-2-yl)-6-(pyrrolidine-1-carbonyl)-N-({5-[5-(trifluoromethyl)-1,2,4-oxadiazol-3-yl]thiophen-2-yl}methyl)pyridazin-3-amine], for which the IC50 in assay [1] was no more than 10000 nM; in assay [2] it was greater than 10000 nM; in assay [3], no more than 500 nM; in assay [4], greater than 10000 nM; in assay [5] it was no more than 500 nM; in assay [6], greater than 10000 nM.
Take `O=C(c1ccc(N(Cc2ccc(-c3noc(C(F)(F)F)n3)s2)c2cnccn2)nn1)N1C[C@@H]2C[C@H]1CO2` [Example FE, 6-[(1S,4S)-2-Oxa-5-azabicyclo[2.2.1]heptane-5-carbonyl]-N-(pyrazin-2-yl)-N-({5-[5-(trifluoromethyl)-1,2,4-oxadiazol-3-yl]thiophen-2-yl}methyl)pyridazin-3-amine]: the IC50 was greater than 10000 nM in assay [1]; greater than 10000 nM in assay [2]; no more than 500 nM in assay [3]; greater than 10000 nM in assay [4]; no more than 500 nM in assay [5]; greater than 10000 nM in assay [6].
Turning to `NC(=O)c1nccnc1N(Cc1ccc(-c2noc(C(F)(F)F)n2)s1)c1cnccn1` [Example GO, 3-[(Pyrazin-2-yl)({5-[5-(trifluoromethyl)-1,2,4-oxadiazol-3-yl]thiophen-2-yl}methyl)amino]pyrazine-2-carboxamide], the IC50 in assay [1] is greater than 10000 nM; in assay [2], greater than 10000 nM; in assay [3], no more than 10000 nM; in assay [4], greater than 10000 nM; in assay [5], no more than 10000 nM; in assay [6], greater than 10000 nM.
As to `O=C(c1cnnc(N(Cc2ccc(-c3noc(C(F)(F)F)n3)s2)c2cnccn2)c1)N1CC(O)(C(F)(F)F)C1` [Example GD, 1-{6-[(Pyrazin-2-yl)({5-[5-(trifluoromethyl)-1,2,4-oxadiazol-3-yl]thiophen-2-yl}methyl)amino]pyridazine-4-carbonyl}-3-(trifluoromethyl)azetidin-3-ol], the IC50 in assay [1] was no more than 10000 nM; in assay [2] it was greater than 10000 nM; in assay [3], no more than 1000 nM; in assay [4] it was greater than 10000 nM; in assay [5] it was no more than 10000 nM; in assay [6] it was greater than 10000 nM.
On to `O=C(c1cnnc(N(Cc2ccc(-c3noc(C(F)(F)F)n3)s2)c2cnccn2)c1)N1CCC12COC2` [Example GF, 5-{6-Oxa-1-azaspiro[3.3]heptane-1-carbonyl}-N-(pyrazin-2-yl)-N-({5-[5-(trifluoromethyl)-1,2,4-oxadiazol-3-yl]thiophen-2-yl}methyl)pyridazin-3-amine], for which the IC50 in assay [1] was greater than 10000 nM; in assay [2], greater than 10000 nM; in assay [3], no more than 500 nM; in assay [4], greater than 10000 nM; in assay [5] it was no more than 1000 nM; in assay [6] it was greater than 10000 nM.
For the compound `FC(F)(F)c1nc(-c2ccc(CN(c3cnccn3)c3ccc(CN4CCOCC4)nn3)s2)no1` [Example FN, 6-[(Morpholin-4-yl)methyl]-N-(pyrazin-2-yl)-N-({5-[5-(trifluoromethyl)-1,2,4-oxadiazol-3-yl]thiophen-2-yl}methyl)pyridazin-3-amine], the 50% inhibitory concentration (IC50) in assay [1] is greater than 10000 nM; in assay [2] it was greater than 10000 nM; in assay [3], no more than 1000 nM; in assay [4], greater than 10000 nM; in assay [5], no more than 1000 nM; in assay [6], greater than 10000 nM.
